Test results: patent US10076511B2, “Bisamide derivative of dicarboxylic acid as an agent for stimulating tissue regeneration and recovery of diminished tissue function” (TREAMID GmbH, priority 2015, dated 2018)
Values joined by “and” are separate entries in the source; they are usually repeats but may differ in a detail not shown here. Equal entries are not always repeated.

Tests used:
male rats = format: in vivo, rat; conditions: Day 65
Protocol: The latter was simulated by a single injection of cytostatic drug Paclitaxel (Mitotax, Dr. Reddy's, India) to male rats (3 months of age). The choice of the drug was due to the fact that it is one of the medications that damage the precursors of spermatogenesis—stem cells.
Paclitaxel was administered to the animals of the control and test groups once intravenously at the maximum tolerated dose of 7.6 mg/kg. Treamid was administered to the animals of the experimental groups intragastrically at a dose of 5 mg/kg in the form of a suspension in 2% starch mucus for 15 days a month after the administration of Paclitaxel. The control animals received an equivalent volume of the solvent (2% starch mucus), instead of the test compound.
The colony-stimulating activity of the cells of the microenvironment of spermatogenic tissue (production of humoral regulators of spermatogenesis by Sertoli cells) was determined as follows. The above-described procedure was used to prepare a testis homogenate from which an adherent fraction of cells was isolated. The adherent cells were cultured for 24 hours in complete culture medium at 37° C., 5% CO2 and 100% air humidity. A day later, the supernatant was collected, which was stored at a temperature of […]. The level of humoral factors of spermatogenesis in the supernatant was tested by the test system of CFU-Sp of the testes of intact rats. […]

Wistar rats = test: Pair-test of sexual behavior, rats of late reproductive (14 months) and presenile (19 months) age; format: in vivo, rat; conditions: for EN (the number of ejaculations) / LFM (latency until the first mount) / MN (the number of mounts): 14-month rats
Protocol: Erectile dysfunction was simulated by using animals of late and senile reproductive age (14-19 months). Suppression of sexual motivation was simulated by using animals of late reproductive age (14 months).
Experiments on studying the effect of Treamid on copulatory activity were carried out on 76 Wistar rats (14 months and 19 months of age). Treamid was administered intragastrically for 14 days at a dose of 5 mg/kg. Reference drug Sildenafil (100 mg, PFIZER PGM, France) was also administered intragastrically, which corresponded to clinical use, at a dose of 3 mg/kg twice a week. The sexual activity was estimated by the pair-test of sexual behavior. For this purpose female rats in the estrus stage caused by a preliminary 4-fold injection of the Synestrel were involved in the experiment. The effectiveness of Treamid was estimated by the following indices: latency until the first mating attempt (LFM), the number of mating attempts (MN), and the number of ejaculations (EN). The obtained data were compared with those of the same animals before the administration of Treamid (the first test) and with the data in the control group (the second test).

male C57BL/6 mice = test: Streptozotocin-induced pancreatic lesion model; format: in vivo, mouse; set-up: The number of piconized cells per islet (pixel): unit not given here
Protocol: The study was performed on male C57BL/6 mice of 4 week old. Pancreatic damage was induced by intraperitoneal injection of streptozotocin at a dose of 40 mg/kg in 0.25 ml of phosphate buffer every day for 5 days [Szkudelski T. The Mechanism of Alloxan and Streptozotocin Action in B Cells of the Rat Pancreas//Physiological Research.—2001.—Vol. 50.—P. 536-546].
Treamid at a dose of 1 mg/kg was administered daily intragastrically once daily on Days 7-20 of the study.
On Days 0, 6, 10, 13, 16, 19, 21, 24, and 28 of the study, blood glucose was determined. The blood glucose level was determined after four-hour deprivation of feed with a glucometer (SencoCard glucometer, “77 Electronics Kft”, Hungary).
On Day 28 of the study, the animals were euthanized in a CO2 chamber, the pancreas was subjected to a morphological examination, and the pancreatic homogenate was studied on an enzyme-linked immunosorbent assay for common collagen and type I collagen.
For morphological study, a part of the pancreas adjacent to the spleen was fixed in 10% formalin and poured into paraffin. Deparaffined sections of the gland were stained with hematoxylin and eosin. On the sections, the area of 10 serial islets of Langerhans was determined by graphic computer analysis, and the total number of cells and the number of pyknotized cells were counted therein. Then, the number of cells per unit islet area and the percentage of the pyknotized cells were calculated.
Inflammatory cells (neutrophils, lymphocytes, macrophages) in the pancreatic tissue and their composition were studied by staining of the histological sections with hematoxylin-eosin and azur-eosin.
The level of mouse type I collagen in a […] was determined by enzyme-linked immunosorbent assay (Cusabio Biotech CO., LTD, China). The lung tissue homogenate was prepared according to the protocol of the manufacturer, Cusabio Biotech CO., LTD (China).
The level of the total collagen in the lung homogenate was determined by using a SIRCOL Collagen Assay kit (Biocolor Ltd, UK) for determining collagen by binding it to a dye and treating with an acid and a solution of pepsin, according to the manufacturer's instructions. The lung tissue homogenate was prepared according to the protocol of manufacturer's test system.

male Wistar rats = test: Sperm motility in asthenospermia simulated with Etoposide; format: in vivo, rat; conditions: for percentage of motile sperm cells: Treamid 5.0 mg/kg for 10 days after administration of Etoposide; for The number of motile sperm cells (in %): 5 days before and 5 days after Etoposide (preventive course), Treamid 5.0 mg/kg
Protocol: The use of the drug that induces an increase in the free radical level was due to the fact that according to modern ideas, the direct cause of asthenospermia is oxidative stress (Kao S. H. et. al. Increase of oxidativestress in human sperm with lower motility. Fertil. and Steril. 2008; 89: 5: 1183-1190).
The experiments were performed on 50 male Wistar rats (3 months of age). Etoposide was administered once intravenously at the maximum tolerated dose of 30 mg/kg.
The effectiveness of Treamid was assessed by the percentage of motile sperm forms isolated from the epididymis.
In the first series, the results of the studies were compared with those obtained for administration of the reference drug, Speman, that was administered intragastrically at a dose of 140 mg/kg.

[1] = First test, before administration of drugs
[2] = Second test, after 14-day administration course, Treamid 5 mg/kg, Sildenafil 3 mg/kg
[3] = 19-month rats, First test (before administration of drugs)
[4] = 19-month rats, Second test (after 14-day administration course), Treamid 5.0 mg/kg

## O=C(CCCC(=O)NCCc1ncc[nH]1)NCCc1ncc[nH]1 [Treamid]
Male rats
  increase of the secretory activity of the microenvironment cells compared to the control: 80%
Wistar rats; [1]
  EN (the number of ejaculations): 0.00 ± 0.00
  LFM (latency until the first mount): 559.08 ± 93.55
  MN (the number of mounts): 1.42 ± 0.50
Wistar rats; [2]
  EN (the number of ejaculations): 0.60 ± 0.22⋄*
  MN (the number of mounts): 6.90 ± 1.88⋄
Wistar rats; Second test, after 14-day administration course, Treamid 5 mg/kg, Sildenafil 3 mg/kg intragastrically
  LFM (latency until the first mount): 364.80 ± 127.66
Wistar rats; [3]
  EN (abs.): 0.00 ± 0.00 abs.
  LFM: 310.27 ± 94.59 s
  MN (abs.): 4.27 ± 1.04 abs.
Wistar rats; [4]
  EN: 0.20 ± 0.13⋄*
  LFM: 297.20 ± 117.04 s
  MN (abs.): 7.90 ± 1.45⋄ abs.
Male C57BL/6 mice; Day 28, Treamid 1 mg/kg
  The area of the islet tissue (pixel): 635770 ± 56163• pixel
  The number of piconized cells per islet (pixel): 1.75 ± 0.14
  The total number of cells in the islet of Langerhans (×10^4): 109.9 ± 12.6• ×10^4
Male C57BL/6 mice; Initial level
  blood glucose level (mM/L): 5.1 ± 0.1 mM/L
Male C57BL/6 mice; day 6 after the last administration of streptozotocin (before Treamid, given Days 7-20)
  blood glucose level (mM/L): 10.8 ± 0.4 mM/L
Male C57BL/6 mice; day 10, Treamid 1 mg/kg intragastrically Days 7-20
  blood glucose level (mM/L): 11.2 ± 0.2 mM/L
Male C57BL/6 mice; day 13, Treamid 1 mg/kg intragastrically Days 7-20
  blood glucose level (mM/L): 11.6 ± 0.3*• mM/L
Male C57BL/6 mice; day 16, Treamid 1 mg/kg intragastrically Days 7-20
  blood glucose level (mM/L): 10.4 ± 1.4 mM/L
Male C57BL/6 mice; day 19, Treamid 1 mg/kg intragastrically Days 7-20
  blood glucose level (mM/L): 12.0 ± 0.1 mM/L
Male C57BL/6 mice; day 21, Treamid 1 mg/kg intragastrically Days 7-20
  blood glucose level (mM/L): 12.1 ± 0.4*• mM/L
Male C57BL/6 mice; day 24, Treamid 1 mg/kg intragastrically Days 7-20
  blood glucose level (mM/L): 12.2 ± 1.0*• mM/L
Male C57BL/6 mice; day 28, Treamid 1 mg/kg intragastrically Days 7-20
  blood glucose level (mM/L): 12.6 ± 1.1 mM/L
Male Wistar rats; group M ± m
  percentage of motile sperm cells: 71.01 ± 1.80 %
Male Wistar rats; group X ± m, Speman 140 mg/kg
  The number of motile sperm cells (in %): 79.83 ± 1.88#*⋄ %
Male Wistar rats; individual animals, Speman 140 mg/kg intragastrically
  The number of motile sperm cells (in %): 77.42% and 79.09% and 82.72% and 74.67% and 85.26%
Male Wistar rats; individual males
  percentage of motile sperm cells: 74.55% and 69.44% and 70.20% and 65.52% and 75.34%
